These results are taken from patent publication US20040237845A1 (priority 2002, published 2004).

The experiment is classed as physicochemical. The conditions noted are these: kaolin clay slurry, no further addition of acid or chlorine donor.

For the substance “Sodium Chlorite [stabilized chlorine dioxide]”, the “persistence of oxidizing/biocidal effects” value is reported as “up to 14 days”.
